Each structure is given as a SMILES string.

Chain of human TNAP (P05186 18-502): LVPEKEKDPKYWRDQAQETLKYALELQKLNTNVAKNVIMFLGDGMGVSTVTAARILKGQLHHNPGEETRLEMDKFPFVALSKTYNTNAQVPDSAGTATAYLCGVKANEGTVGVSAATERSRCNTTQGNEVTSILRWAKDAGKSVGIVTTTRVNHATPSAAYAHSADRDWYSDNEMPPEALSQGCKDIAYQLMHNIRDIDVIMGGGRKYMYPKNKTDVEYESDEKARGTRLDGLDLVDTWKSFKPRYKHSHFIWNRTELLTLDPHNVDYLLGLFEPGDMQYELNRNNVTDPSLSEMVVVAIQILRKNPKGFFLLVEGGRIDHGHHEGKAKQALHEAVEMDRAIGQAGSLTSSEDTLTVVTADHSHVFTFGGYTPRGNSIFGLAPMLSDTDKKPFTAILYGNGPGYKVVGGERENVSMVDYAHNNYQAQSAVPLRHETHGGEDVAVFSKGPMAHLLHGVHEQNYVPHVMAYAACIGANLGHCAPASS

This test deals with human TNAP (Homo sapiens (Human), UniProt P05186). The experiment in a line: Inhibitory test of TNAP activity (pNPP substrate, p-nitrophenol production). Type of test: biochemical. The settings on record: inhibition of human TNAP activity, incubated at room temperature for 60 minutes. As for the experimental part:
COS 1 cells (DS Pharma Biomedical Co., Ltd.) were transfected with human TNAP (OriGene Technologies, Inc.) using Lipofectamine LTX & Plus reagent (Invitrogen Corp.). On the next day, the medium was replaced with a fresh medium, and the cells were cultured in an incubator for 3 days. After 3 days, the culture supernatant was collected and concentrated by centrifugation at 5000 G for 30 minutes using Amicon 14, 10^4 cut (Merck Millipore). The concentrated culture supernatant was dialyzed against 5 L of 50 mM Tris/200 mM NaCl/1 mM MgCl2/20 μM ZnCl2 twice and used as an enzyme source (enzyme solution). The substrate pNPP (ProteoChem Inc.) was adjusted to 3.1 mM with Milli-Q water, and a solution of each test compound dissolved in dimethyl sulfoxide (DMSO; Wako Pure Chemical Industries, Ltd.) by 6 serial dilutions at a 5-fold common ratio from 100 μM, or DMSO was added thereto at a final concentration of 1% by volume. The enzyme solution adjusted to 2 μg/mL with an assay buffer (200 mM Tris/2 mM MgCl2/0.04 mM ZnCl2/0.01% Tween 20) was added in the same amount of the substrate solution and incubated at room temperature for 60 minutes. Then, the absorbance (ABS: 405 nm) was measured using a microplate reader (model plus 384, Molecular Devices, LLC), and the concentration of produced p-nitrophenol was calculated.
In turn, `COc1ccc(OC)c(S(=O)(=O)Nc2cnc3c(c2)C(=O)N[C@@H](CO)CO3)c1` [Example 30, N-[(3S)-3-(Hydroxymethyl)-5-oxo-2,3,4,5-tetrahydropyrido[3,2-f][1,4]oxazepin-7-yl]-2,5-dimethoxybenzenesulfonamide] returned an IC50 of 3.8 nM.
Under `CCN1CCOc2ncc(NS(=O)(=O)c3cc(F)ccc3OC)cc2C1=O` [Example 4, N-(4-Ethyl-5-oxo-2,3,4,5-tetrahydropyrido[3,2-f][1,4]oxazepin-7-yl)-5-fluoro-2-methoxybenzenesulfonamide] stands 22.9 nM.
`COc1ccc(Cl)cc1S(=O)(=O)Nc1cnc2c(c1)C(=O)NC(C(=O)N1CCOCC1)CO2` (stereo not drawn) [Example 46, 5-chloro-2-methoxy-N-[3-(morpholin-4-ylcarbonyl)-5-oxo-2,3,4,5-tetrahydropyrido[3,2-f][1,4]oxazepin-7-yl]benzenesulfonamide] returned an IC50 of 25.2 nM.
For `O=C1NCCOc2ncc(NS(=O)(=O)c3cc(Cl)ccc3OC(F)(F)F)cc21` [Example 13, 5-Chloro-N-(5-oxo-2,3,4,5-tetrahydropyrido[3,2-f][1,4]oxazepin-7-yl)-2-(trifluoromethoxy)benzenesulfonamide], the IC50 came to 3.4 nM.
Then `COc1ccc(CN2CCOc3ncc(NS(=O)(=O)c4cc(Cl)ccc4OC)cc3C2=O)c(OC)c1` [Example 8, 5-Chloro-N-[4-(2,4-dimethoxybenzyl)-5-oxo-2,3,4,5-tetrahydropyrido[3,2-f][1,4]oxazepin-7-yl]-2-methoxybenzenesulfonamide], with 9.1 nM.
Under `COc1ccc(F)cc1S(=O)(=O)Nc1cnc2c(c1)C(=O)N(C)[C@@H](C)CO2` [Example 19, N-[(3S)-3,4-Dimethyl-5-oxo-2,3,4,5-tetrahydropyrido[3,2-f][1,4]oxazepin-7-yl]-5-fluoro-2-methoxybenzenesulfonamide] stands 6.4 nM; under `COc1ccc(Cl)cc1S(=O)(=O)Nc1cnc2c(c1)C(=O)NC1(CC1)CO2` [Example 35, 5-Chloro-2-methoxy-N-(5′-oxo-4′,5′-dihydrospiro[cyclopropane-1,3′-pyrido[3,2-f][1,4]oxazepin]-7′-yl)benzenesulfonamide], 1.1 nM.
Under `CCOc1ccc(F)cc1S(=O)(=O)Nc1cnc2c(c1)C(=O)NC1(CC1)CO2` [Example 42, 2-Ethoxy-5-fluoro-N-(5′-oxo-4′,5′-dihydrospiro[cyclopropane-1,3′-pyrido[3,2-f][1,4]oxazepin]-7′-yl)benzenesulfonamide] stands 0.6 nM.
Turning to `CC[C@H]1COc2ncc(NS(=O)(=O)c3cc(Cl)ccc3OC)cc2C(=O)N1C` [Example 24, 5-Chloro-N-[(3S)-3-ethyl-4-methyl-5-oxo-2,3,4,5-tetrahydropyrido[3,2-f][1,4]oxazepin-7-yl]-2-methoxybenzenesulfonamide], the midpoint of inhibition, the IC50, lay at 7.2 nM.
`COc1ccc(Cl)cc1S(=O)(=O)Nc1cnc2c(c1)C(=O)N(C)CCO2` [Example 1, 5-Chloro-2-methoxy-N-(4-methyl-5-oxo-2,3,4,5-tetrahydropyrido[3,2-f][1,4]oxazepin-7-yl)benzenesulfonamide] returned an IC50 of 6.3 nM.
Under `COc1ccc(Cl)cc1S(=O)(=O)Nc1cnc2c(c1)C(=O)N(c1ccccn1)CCO2` [Example 38, 5-Chloro-2-methoxy-N-[5-oxo-4-(pyridin-2-yl)-2,3,4,5-tetrahydropyrido[3,2-f][1,4]oxazepin-7-yl]benzenesulfonamide] stands 24.4 nM.
`COc1ccc(F)cc1S(=O)(=O)Nc1cnc2c(c1)C(=O)NC1(CC1)CO2` [Example 36, 5-Fluoro-2-methoxy-N-(5′-oxo-4′,5′-dihydrospiro[cyclopropane-1,3′-pyrido[3,2-f][1,4]oxazepin]-7′-yl)benzenesulfonamide]: half-maximal inhibition (IC50) was put at 2.2 nM.
As to `COc1ccc(Cl)cc1S(=O)(=O)Nc1cnc2c(c1)C(=O)N[C@@H](C)CO2` [Example 22, 5-Chloro-2-methoxy-N-[(3S)-3-methyl-5-oxo-2,3,4,5-tetrahydropyrido[3,2-f][1,4]oxazepin-7-yl]benzenesulfonamide], the IC50 came out at 1.7 nM.
The molecule `COc1ccc(F)cc1S(=O)(=O)Nc1cnc2c(c1)C(=O)N(C)CC(C)O2` (stereo not drawn) [Example 15, N-(2,4-Dimethyl-5-oxo-2,3,4,5-tetrahydropyrido[3,2-f][1,4]oxazepin-7-yl)-5-fluoro-2-methoxybenzenesulfonamide] showed an IC50 of 95.7 nM.
`O=C1NC2(CC2)COc2ncc(NS(=O)(=O)c3cc(F)ccc3OC(F)(F)F)cc21` [Example 41, 5-Fluoro-N-(5′-oxo-4′,5′-dihydrospiro[cyclopropane-1,3′-pyrido[3,2-f][1,4]oxazepin]-7′-yl)-2-(trifluoromethoxy)benzenesulfonamide]: the IC50 was found to be 2.7 nM.
As to `O=C1N[C@@H](CO)COc2ncc(NS(=O)(=O)c3cc(F)ccc3OC(F)(F)F)cc21` [Example 32, 5-Fluoro-N-[(3S)-3-(hydroxymethyl)-5-oxo-2,3,4,5-tetrahydropyrido[3,2-f][1,4]oxazepin-7-yl]-2-(trifluoromethoxy)benzenesulfonamide], the IC50 was 4.1 nM.
Under `COc1ccc(OC)c(S(=O)(=O)Nc2cnc3c(c2)C(=O)NC2(CC2)CO3)c1` [Example 43, 2,5-Dimethoxy-N-(5′-oxo-4′,5′-dihydrospiro[cyclopropane-1,3′-pyrido[3,2-f][1,4]oxazepin]-7′-yl)benzenesulfonamide] stands 1 nM.
Then `COc1ccc(F)cc1S(=O)(=O)Nc1cnc2c(c1)C(=O)NCCO2` [Example 10, 5-Fluoro-2-methoxy-N-(5-oxo-2,3,4,5-tetrahydropyrido[3,2-f][1,4]oxazepin-7-yl)benzenesulfonamide], with 4 nM.
`COc1ccc(Cl)cc1S(=O)(=O)Nc1cnc2c(c1)C(=O)N(C)[C@@H](C)CO2` [Example 18, 5-Chloro-N-[(3S)-3,4-dimethyl-5-oxo-2,3,4,5-tetrahydropyrido[3,2-f][1,4]oxazepin-7-yl]-2-methoxybenzenesulfonamide] returned an IC50 of 3.9 nM.
Then `COc1ccc(Cl)cc1S(=O)(=O)Nc1cnc2c(c1)C(=O)N(C)C(C)CO2` (stereo not drawn) [Example 16, 5-Chloro-N-(3,4-dimethyl-5-oxo-2,3,4,5-tetrahydropyrido[3,2-f][1,4]oxazepin-7-yl)-2-methoxybenzenesulfonamide], with 6.2 nM; and `COc1ccc(F)cc1S(=O)(=O)Nc1cnc2c(c1)C(=O)N[C@@H](C)CO2` [Example 23, 5-Fluoro-2-methoxy-N-[(3S)-3-methyl-5-oxo-2,3,4,5-tetrahydropyrido[3,2-f][1,4]oxazepin-7-yl]benzenesulfonamide], with 3.5 nM.
Then `O=C1N[C@@H](CO)COc2ncc(NS(=O)(=O)c3cc(Cl)ccc3OC(F)(F)F)cc21` [Example 31, 5-Chloro-N-[(3S)-3-(hydroxymethyl)-5-oxo-2,3,4,5-tetrahydropyrido[3,2-f][1,4]oxazepin-7-yl]-2-(trifluoromethoxy)benzenesulfonamide], with 1.6 nM; and `COc1ccc(Cl)cc1S(=O)(=O)Nc1cnc2c(c1)C(=O)N(C)[C@H](C)CO2` [Example 20, 5-Chloro-N-[(3R)-3,4-dimethyl-5-oxo-2,3,4,5-tetrahydropyrido[3,2-f][1,4]oxazepin-7-yl]-2-methoxybenzenesulfonamide], with 27.1 nM.
Then `COc1ccccc1S(=O)(=O)Nc1cnc2c(c1)C(=O)NCCO2` [Example 12, 2-Methoxy-N-(5-oxo-2,3,4,5-tetrahydropyrido[3,2-f][1,4]oxazepin-7-yl)benzenesulfonamide], with 13.4 nM; and `COc1ccc(Cl)cc1S(=O)(=O)Nc1cnc2c(c1)C(=O)N(C(C)C)CCO2` [Example 5, 5-Chloro-2-methoxy-N-[5-oxo-4-(propan-2-yl)-2,3,4,5-tetrahydropyrido[3,2-f][1,4]oxazepin-7-yl]benzenesulfonamide], with 71.3 nM.
`COc1ccc(Cl)cc1S(=O)(=O)Nc1cnc2c(c1)C(=O)NCCO2` [Example 9, 5-Chloro-2-methoxy-N-(5-oxo-2,3,4,5-tetrahydropyrido[3,2-f][1,4]oxazepin-7-yl)benzenesulfonamide] returned an IC50 of 1.4 nM.
For the molecule `COc1ccc(Cl)cc1S(=O)(=O)Nc1cnc2c(c1)C(=O)NC(c1cccnc1)CO2` (stereo not drawn) [Example 44, 5-Chloro-2-methoxy-N-[5-oxo-3-(pyridin-3-yl)-2,3,4,5-tetrahydropyrido[3,2-f][1,4]oxazepin-7-yl]benzenesulfonamide], it took 1.4 nM to reach half-maximal inhibition (IC50).
`COc1ccc(F)cc1S(=O)(=O)Nc1cnc2c(c1)C(=O)N[C@@H](CO)CO2` [Example 28, 5-Fluoro-N-[(3S)-3-(hydroxymethyl)-5-oxo-2,3,4,5-tetrahydropyrido[3,2-f][1,4]oxazepin-7-yl]-2-methoxybenzenesulfonamide] displayed a 50% inhibitory concentration (IC50) of 3.6 nM.
Under `COc1ccc(Cl)cc1S(=O)(=O)Nc1cnc2c(c1)C(=O)N[C@@H](CCO)CO2` [Example 33, 5-Chloro-N-[(3S)-3-(2-hydroxyethyl)-5-oxo-2,3,4,5-tetrahydropyrido[3,2-f][1,4]oxazepin-7-yl]-2-methoxybenzenesulfonamide] stands 1.9 nM; under `COc1ccc(Cl)cc1S(=O)(=O)Nc1cnc2c(c1)C(=O)N(c1cccnc1)CCO2` [Example 39, 5-Chloro-2-methoxy-N-[5-oxo-4-(pyridin-3-yl)-2,3,4,5-tetrahydropyrido[3,2-f][1,4]oxazepin-7-yl]benzenesulfonamide], 13.2 nM.

(Values after patent publication US9879032B2, “Pyridine compounds” (Daiichi Sankyo Company, Limited, priority 2015, dated 2018).)
